What was measured:
[1] = tested on: breast cancer cell line MDA-MB-231; assay: SRB cell viability assay, breast cancer cell line MDA-MB-231; type: cell-based; conditions: Homo sapiens; MDA-MB-231, 72 hours; read-out: Cell growth inhibition concentration (IC50)
Experimental: Regarding a lung cancer cell line A549 (Korean Cell line Bank), a colon cancer cell line HCT116 (ATCC), a stomach cancer cell line SNU638 (Korean Cell Line Bank), a liver cancer cell line SK-HEP-1 (Korean Cell line Bank), and a breast cancer cell line MDA-MB-231 (Korean Cell line Bank), a sulforhodamine B (SRB) assay which is a method of measuring cell viability was used for measuring apoptosis effects of Asperphenin.
In detail, 190 μl of a cell suspension at a concentration of 3.5×10^4 cells/ml was inoculated in each well of a 96-well microplate. 0.8 μM, 4 μM, 20 μM, or 100 μM of Asperphenin was added to the cell culture medium, and cultured at a temperature of 37° C. for 72 hours under the condition of 5% CO2. After incubation, 50 μl of 50% (v/v) trichloroacetic acid solution (Sigma Aldrich) was added to each well, and then, incubated at a temperature of 4° C. for 30 minutes, to thereby fix the cells thereto. The fixed cells were washed with water five times, and then, dried in the air.
Next, 80 μl of a 0.4% (w/v) SRB aqueous solution (Sigma Aldrich) containing 1% (v/v) acetic acid (DUKSAN) was added to each well, incubated at room temperature for 1 hour to stain cells therein, and the stained cells washed with water and dried. The cells were dissolved by adding 200 μl of 10 mM Tris (pH 10.0) (Sigma Aldrich) to each well, and then, the number of living cells was calculated by measuring the absorbance thereof at 515 nm. The concentration of the compound inhibiting cell growth to 50% based on the number of the living cells, i.e., 50% inhibition concentration (IC50) was calculated, and the results are shown in Table 3. Here, as a positive control, etoposide (Sigma Aldrich) was used.

[2] = tested on: colon cancer cell line RKO; assay: Cell cycle analysis by PI flow cytometry; type: cell-based, human
Experimental: The effects of Asperphenin B on the cell cycle of the colon cancer cell line RKO was confirmed by flow cytometry.
RKO cells (ATCC) were diluted in a medium containing 10% (v/v) FBS to become 1×10^5 cells/ml, and then, inoculated into a 60 mm culture dish. The inoculated cells were cultured for about 24 hours at a temperature of 37° C. under the condition of 5% CO2. The cultured cells were washed with phosphate-buffered saline (PBS) once, and the medium was replaced by a fresh medium. Asperphenin B at the final concentration of 0.625 μM, 1.25 μM, 2.5 μM, 5 μM, or 10 μM was added to the cultured cells, and then, the cells were cultured at a temperature of 37° C. under condition of 5% CO2.
After a certain period of time, cells attached to the culture dish and cells not attached to the medium were collected. The collected cells was washed with PBS once, and then, 1 ml of cold 70% (v/v) ethanol. The cells were incubated at a temperature of 4° C. for about 12 hours to fix the cells. After removing 70% (v/v) ethanol, the fixed cells were washed with PBS once. 500 μl of RNase A (Sigma Aldrich) at a concentration of 50 μg/ml as added to the cells, and the cells were incubated at room temperature for about 30 minutes. Propidium iodide (PI) at a final concentration of 50 μg/ml was added to the cells, and then, the cells were incubated at room temperature for about 30 minutes in a condition where reactants were in the shaded state. The cells stained with PI were subjected to analysis of cell cycle by using a BD FACSCalibur flow cytrometer (manufactured by BD Biosciences). Based on the flow cytometry results, cell ratios at the sub-G1, G0/G1, S, and G2/M phases were calculated. Here, as a negative control, cells to which Asperphenin B was not added was used.
When the RKO cells were incubated for 48 hours in the presence of Asperphenin B, cell ratios (%) dependent on the concentration of Asperphenin B are shown in FIG. 3A and Table 5. When the RKO cells were incubated in the presence of Asperphenin B at the concentrations of 2.5 μM and 5 μM, cell ratios (%) dependent on the incubation time are shown in FIGS. 3B and 3C, and Table 6.

[3] = RKO cells, 2.5 μM, 48 hours, Table 6
[4] = RKO cells, 5 μM, 48 hours, Table 6
[5] = RKO cells, 48 hours, 2.5 μM, Table 5
[6] = RKO cells, 48 hours, 5 μM, Table 5

In the case of `CCCCCCCCC[C@@H](O)CC(=O)N[C@@H](CC(N)=O)C(=O)N[C@@H](CCC(N)=O)C(=O)N[C@H](CC(=O)c1cc(C)cc(O)c1C(=O)c1c(O)cccc1O)CC(C)C` [Asperphenin B], the IC50 [1] is reported as 6 µM, the “Effect on cells in the G2/M phase” value ([2]; 2.5 μM or 5 μM, until 24 hours of treatment) is reported as “cell cycle arrest” and the “Effect after 48 hours of treatment” value ([2]; RKO cells, 2.5 μM or 5 μM, 48 hours) is reported as “cell apoptosis was induced”. The “Cell ratio, G0/G1 phase” value ([2]; RKO cells, 2.5 μM, 6 hours) was 62.16%, the “Cell ratio, G2/M phase” value ([2]; RKO cells, 2.5 μM, 6 hours) was 18.28% and the “Cell ratio, S phase” value ([2]; RKO cells, 2.5 μM, 6 hours) was 13.82%. The “Cell ratio, Sub-G1 phase” value ([2]; RKO cells, 2.5 μM, 6 hours) was 3.77%, the “Cell ratio, G0/G1 phase” value ([2]; RKO cells, 2.5 μM, 12 hours) was 56.50% and the “Cell ratio, G2/M phase” value ([2]; RKO cells, 2.5 μM, 12 hours) was 22.18%. The “Cell ratio, S phase” value ([2]; RKO cells, 2.5 μM, 12 hours) was 15.09%, the “Cell ratio, Sub-G1 phase” value ([2]; RKO cells, 2.5 μM, 12 hours) was 3.25% and the “Cell ratio, G0/G1 phase” value ([2]; RKO cells, 2.5 μM, 24 hours) was 30.73%. For the same compound, the “Cell ratio, G2/M phase” value ([2]; RKO cells, 2.5 μM, 24 hours) was 40.76%, the “Cell ratio, S phase” value ([2]; RKO cells, 2.5 μM, 24 hours) was 17.38% and the “Cell ratio, Sub-G1 phase” value ([2]; RKO cells, 2.5 μM, 24 hours) was 5.03%. The “Cell ratio, G0/G1 phase” value [2, 3] was 17.80%, the “Cell ratio, G2/M phase” value [2, 3] was 39.31% and the “Cell ratio, S phase” value [2, 3] was 6.55%. For the same compound, the “Cell ratio, Sub-G1 phase” value [2, 3] was 33.38%, the “Cell ratio, G0/G1 phase” value ([2]; RKO cells, 5 μM, 6 hours) was 60.66% and the “Cell ratio, G2/M phase” value ([2]; RKO cells, 5 μM, 6 hours) was 20.21%. The “Cell ratio, S phase” value ([2]; RKO cells, 5 μM, 6 hours) was 13.48%, the “Cell ratio, Sub-G1 phase” value ([2]; RKO cells, 5 μM, 6 hours) was 3.19% and the “Cell ratio, G0/G1 phase” value ([2]; RKO cells, 5 μM, 12 hours) was 57.60%. The “Cell ratio, G2/M phase” value ([2]; RKO cells, 5 μM, 12 hours) was 20.93%, the “Cell ratio, S phase” value ([2]; RKO cells, 5 μM, 12 hours) was 14.63% and the “Cell ratio, Sub-G1 phase” value ([2]; RKO cells, 5 μM, 12 hours) was 3.80%. For the same compound, the “Cell ratio, G0/G1 phase” value ([2]; RKO cells, 5 μM, 24 hours) was 28.35%, the “Cell ratio, G2/M phase” value ([2]; RKO cells, 5 μM, 24 hours) was 48.88% and the “Cell ratio, S phase” value ([2]; RKO cells, 5 μM, 24 hours) was 14.08%. For the same compound, the “Cell ratio, Sub-G1 phase” value ([2]; RKO cells, 5 μM, 24 hours) was 4.86%, the “Cell ratio, G0/G1 phase” value [2, 4] was 20.53% and the “Cell ratio, G2/M phase” value [2, 4] was 23.37%. For the same compound, the “Cell ratio, S phase” value [2, 4] was 5.90%, the “Cell ratio, Sub-G1 phase” value [2, 4] was 48.23% and the “Cell ratio, G0/G1 phase” value ([2]; RKO cells, 48 hours, 0.625 μM) was 52.49%. For the same compound, the “Cell ratio, G2/m phase” value ([2]; RKO cells, 48 hours, 0.625 μM) was 29.56%, the “Cell ratio, S phase” value ([2]; RKO cells, 48 hours, 0.625 μM) was 8.11% and the “Cell ratio, Sub-G1 phase” value ([2]; RKO cells, 48 hours, 0.625 μM) was 7.14%. The “Cell ratio, G0/G1 phase” value ([2]; RKO cells, 48 hours, 1.25 μM) was 23.02%, the “Cell ratio, G2/m phase” value ([2]; RKO cells, 48 hours, 1.25 μM) was 43.94% and the “Cell ratio, S phase” value ([2]; RKO cells, 48 hours, 1.25 μM) was 6.39%. For the same compound, the “Cell ratio, Sub-G1 phase” value ([2]; RKO cells, 48 hours, 1.25 μM) was 24.18%, the “Cell ratio, G0/G1 phase” value [2, 5] was 17.99% and the “Cell ratio, G2/m phase” value [2, 5] was 34.58%. The “Cell ratio, S phase” value [2, 5] was 6.63%, the “Cell ratio, Sub-G1 phase” value [2, 5] was 38.60% and the “Cell ratio, G0/G1 phase” value [2, 6] was 17.59%. The “Cell ratio, G2/m phase” value [2, 6] was 15.97%, the “Cell ratio, S phase” value [2, 6] was 5.29% and the “Cell ratio, Sub-G1 phase” value [2, 6] was 59.90%. For the same compound, the “Cell ratio, G0/G1 phase” value ([2]; RKO cells, 48 hours, 10 μM) was 17.07%, the “Cell ratio, G2/m phase” value ([2]; RKO cells, 48 hours, 10 μM) was 8.92% and the “Cell ratio, S phase” value ([2]; RKO cells, 48 hours, 10 μM) was 5.46%. The “Cell ratio, Sub-G1 phase” value ([2]; RKO cells, 48 hours, 10 μM) was 67.82%.

Reference: patent US10759831B2, “Peptide compound, production method therefor, and use thereof” (iNtRON Biotechnology, Inc., priority 2014, dated 2020)
